# Reference: patent US20240067672A1, “FLAVONE DERIVATIVE FOR TREATING TUMORS AND USE THEREOF” (SICHUAN FUSHENGYUAN TECHNOLOGY CO., LTD, priority 2019, published 2024)
# Where two headings read alike, the source gives them in different places.
# Legend:
# [1] = tested on: HepG2 subcutaneous tumor; assay: Anti-tumor activity in vivo, HepG2 nude mouse model; parameters: species or system Balb/c nude mice; settings: HepG2 nude mice, intraperitoneally every day for 21 days; for anti-tumor activity in vivo (tumor volume, FIG. 1): high and low dose; for tumor inhibition rate: equal mole of Icaritin (Icaritin 10 mg/kg)
# Source text: According to the investigation results of solubility and cell activity, compounds 51 and 57 with high solubility and strong cell activity were selected to evaluate the anti-hepatoma activity in vivo on HepG2 nude mouse models.
# Human hepatoma cells HepG2 were cultivated to logarithmic growth phase in DMEM culture medium containing 10% fetal calf serum and 1% antibiotics (penicillin and streptomycin), and digested by adding 0.25% pancreatin. After the resulting cells were cultivated in DMEM and the pancreatin was removed, they were centrifuged at 1000 rpm for 3 min. Then the cells were collected and washed with free medium until no bubbles produced as observed by naked eyes, and then ° entrifuged. After discarding the supernatant, the cells were resuspended with free medium adjust the cell density to 1×10^6/100 μL.
# 70 Balb/c nude mice raised in an SPF-grade animal house were taken. 100 μL, HepG2 cells were inoculated subcutaneously at the right lateral rib of each nude mouse. The growing status of nude mice was observed and the subcutaneous tumor volume was measured every day. One week after inoculation, obvious nodules were formed subcutaneously in nude mice. Administration was initiated when the tumor grew to 100 mm^3.
# Tumor volume increased to 80-120 mm^3 at two weeks after inoculation, marked as Day 0. The nude mice were randomly divided into 6 groups with 6 mice in each group: a normal saline group (control), an Icaritin group (Icarian), a yyhs-i-b high dose group, a yyhs-1-b low dose group, a yyhs-2-a high dose group, and a yyhs-2-a low dose group. Administration was performed intraperitoneally every day for 21 days totally.
# The administration doses were: Icarian at 10 mg/kg, compound 51 high dose at 25.30 mg/kg, low dose at 12.65 mg/kg, compound 57 high dose at 22.91 mg/kg, and low dose at 11.45 mg/kg.
# From day 0, the body weights and tumor volumes of nude mice were measured once every three days, in which the maximum diameter (a) of tumor was measured first, and then the longest radial line length (b) perpendicular to the maximum diameter line was measured, in mm, thereby calculating the tumor volume according to the following formula: […]
# At the end of the treatment cycle, blood was taken from orbital vein of the nude mice for later blood routine test. Then the nude mice were sacrificed using cervical vertebra dislocation. After taking photos, the tumors were stripped immediately and photographed for record. From day 0, the body weights of each group of nude mice were weighed and recorded every 3 days, and at the same time, the tumor volumes of these nude mice were recorded. The average body weight and tumor volume were calculated for each group, and the curve of body weight versus tumor volume of the nude mice was plotted according to the statistical data.
# The hearts, livers, spleens, lungs, and kidneys were subsequently picked from the nude mice, soaked with 4% paraformaldehyde and then preserved at a low temperature of 4° C. for later investigation of the mechanism of the anti-tumor in vivo. The tumor volume growth curve was plotted with the time as the horizontal coordinate, and with the tumor volume as the vertical coordinate. The tumor volume growth curves and the appearance of tumors are seen in FIG. 1. The body weight changing curves of mice are plotted in FIG. 2, with the time as the horizontal coordinate, and the body weight of mice as the vertical coordinate.
# [2] = tested on: HepG2 hepatoma cells; assay: Anti-tumor activity in vitro, MTT method, HepG2; type: cell-based, human; settings: for IC50 compared with Icaritin, HepG2 72 h: HepG2, 72 h after administration; for IC50 compared with Icaritin, 48 and 72 h: HepG2 and SMMC7721, 48 and 72 h; for IC50: MTT
# Procedure: (§1) The effects of Icaritin and its derivatives on the activities of HepG2 and SMMC7721 hepatoma cells were investigated by a MTT method. […] After reaction for 48, 7 2 h, each well was added with 20 μL 5 mg/mL, of MTT solution, and incubated in a cell incubator for 3-4 h. Then the liquid in the well plates was sucked to discard. Each well was added with 150 μL of dimethyl sulfoxide (DMSO), and shaken on an enzyme-labeled instrument for 30 s at ambient temperature so that the Formazan crystals were dissolved sufficiently. The absorbance value A of each well at 570 nm was detected by the enzyme-labeled instrument, and the experiment was repeated for 3 times.
# [3] = tested on: SMMC7721 hepatoma cells; assay: Anti-tumor activity in vitro, MTT method, SMMC7721; type: cell-based, human; settings: for IC50: MTT; for IC50 compared with Icaritin, SMMC7721 72 h: SMMC7721, 72 h after administration
# Procedure: as §1
# [4] = Determination of solubility (HPLC); type: physicochemical; settings: for solubility: 37 °C, thermodynamic from solid
# Procedure: About 1.325 mg of Icaritin and the synthesized derivative were weighed and dissolved in 1.5 mL methanol respectively, then diluted with methanol into solutions of 10, 20, 50, 100, 150, 200, 500 μg/mL, and filtered over an organic-system filter head of 0.45 μm into sample bottles, obtaining the samples for test. Four parts of Icaritin and the synthesized derivative were weighed respectively, 1.00 mg for each part, and placed into 1.5 mL EP tubes, and 1 mL of water, normal saline, PBS, and 0.1% Tween 80 were respectively added thereto. The obtained solutions were ultrasonicated for 1 h, placed in a water bath at 37° C. overnight, and centrifuged at 10000 r/min for 3 min to collect supernatants. The supernatants were taken into sample bottles and detected by HPLC. The experiments were conducted in parallel for three times. The detection of HPLC is conducted under conditions of a chromatographic column of waters Symmetry C18, a mobile phase of a solution of methanol and water with a ratio of 80:20, a flow rate of 1.0 mL/min, a column temperature of 30° C., a detection wavelength of 210 nm, a run time of 30 min, and a sample load of 20 μL.
# [5] = Homo sapiens, HepG2, 48 h, read-out: IC50 HepG2 48 h
# [6] = Homo sapiens, HepG2, 72 h, read-out: IC50 HepG2 72 h
# [7] = Homo sapiens, SMMC-7721, SMMC7721, 48 h, read-out: IC50 SMMC7721 48 h
# [8] = Homo sapiens, SMMC-7721, SMMC7721, 72 h, read-out: IC50 SMMC7721 72 h
# [9] = aqueous with cosolvent or surfactant or cyclodextrin
# [10] = HepG2, 48 h, read-out: IC50 HepG2 48 h
# [11] = HepG2, 72 h, read-out: IC50 HepG2 72 h
# [12] = SMMC7721, 48 h, read-out: IC50 SMMC7721 48 h
# [13] = SMMC7721, 72 h, read-out: IC50 SMMC7721 72 h
SMILES,"IC50 compared with Icaritin, HepG2 72 h [2]","IC50 compared with Icaritin, 48 and 72 h [2]","IC50 [2, 5]","IC50 [2, 6]","IC50 [3, 7]","IC50 [3, 8]","IC50 compared with Icaritin, SMMC7721 72 h [3]",solubility compared with that of the bulk drug (Icaritin) [4],"solubility [4, 9]",solubility ([4]; saline or isotonic),solubility ([4]; water),"IC50 [2, 10]","IC50 [2, 11]","IC50 [3, 12]","IC50 [3, 13]","Solubility, 0.1% Tween 80 [4]","Solubility, Normal Saline [4]","Solubility, PBS [4]","Solubility, Water [4]",other results
COc1ccc(-c2oc3c(CC=C(C)C)c(O)cc(O)c3c(=O)c2OC(=O)CCC(=O)OCCOCCOCCOCCOCc2cn(CCO[C@H]3O[C@@H](CO)[C@H](O)[C@@H](O)[C@@H]3O)nn2)cc1 [Compound 51],less than that of Icaritin,less than those of Icaritin,14.9 ± 0.22 µM,7.09 ± 0.38 µM,9.3 ± 0.35 µM,5.99 ± 0.49 µM,less than that of Icaritin,improved effectively,51.5 ± 1.23 µg/mL,47.9 ± 0.993 µg/mL,50.3 ± 1.31 µg/mL,,,,,,,,,"anti-tumor activity in vivo (tumor volume, FIG. 1) [1]: excellent anti-tumor activities in vivo and are dose-dependent; tumor inhibition rate [1]: 95%; solubility ([4]; aqueous buffer): 48.5 ± 0.948 µg/mL"
COc1ccc(-c2oc3c(CC=C(C)C)c(O)cc(O)c3c(=O)c2OC(=O)CCC(=O)OCCOCCOCCOCc2cn(C3OC(CO)C(O)C(O)C3O)nn2)cc1 (stereo not shown) [Compound 57],less than that of Icaritin,less than those of Icaritin,,,,,less than that of Icaritin,improved effectively,,,,10.3 ± 1.19 µM,7.91 ± 0.98 µM,10.3 ± 1.19 µM,5.82 ± 1.04 µM,6.508 ± 0.742 µg/mL,16.383 ± 0.941 µg/mL,16.391 ± 1.029 µg/mL,17.710 ± 1.012 µg/mL,"anti-tumor activity in vivo (tumor volume, FIG. 1) [1]: excellent anti-tumor activities in vivo and are dose-dependent; tumor inhibition rate [1]: 90%"
COc1ccc(-c2oc3c(CC=C(C)C)c(O)cc(O)c3c(=O)c2OC(=O)CCC(=O)OCCCCOCc2cn(CCOCCOC3OC(CO)C(O)C(O)C3O)nn2)cc1 (stereo not shown) [Compound 89],,,,,,,,,,,,> 100 µM,> 100 µM,> 100 µM,35.6 ± 1.36 µM,Insoluble,Insoluble,Insoluble,Insoluble,
COc1ccc(-c2oc3c(CC=C(C)C)c(O)cc(O)c3c(=O)c2OC(=O)CCC(=O)OCCCOCc2cn(CCO[C@H]3O[C@@H](CO)[C@H](O)[C@@H](O)[C@@H]3O)nn2)cc1 [Compound 96],less than that of Icaritin,less than those of Icaritin,12 ± 0.82 µM,5.56 ± 0.8 µM,29.7 ± 1.23 µM,6.65 ± 1.29 µM,less than that of Icaritin,improved effectively,16.8 ± 0.422 µg/mL,16.8 ± 0.313 µg/mL,16.9 ± 0.462 µg/mL,,,,,,,,,solubility ([4]; aqueous buffer): 15.5 ± 1.31 µg/mL
COc1ccc(-c2oc3c(CC=C(C)C)c(O)cc(O)c3c(=O)c2OC(=O)CCC(=O)OCCCOCc2cn(CCOCCOC3OC(CO)C(O)C(O)C3O)nn2)cc1 (stereo not shown) [Compound 97],,,,,,,less than that of Icaritin,,,,,> 100 µM,> 100 µM,> 100 µM,8.68 ± 0.52 µM,6.123 ± 0.931 µg/mL,5.036 ± 1.031 µg/mL,5.031 ± 0.901 µg/mL,5.474 ± 0.394 µg/mL,
COc1ccc(-c2oc3c(CC=C(C)C)c(O)cc(O)c3c(=O)c2OC(=O)CCC(=O)OCCN(CCOCc2cn(CCO[C@@H]3O[C@H](CO)[C@@H](O)[C@H](O)[C@H]3O)nn2)c2ccccc2)cc1 [Compound 104],less than that of Icaritin,,> 100 µM,9.02 ± 0.27 µM,> 100 µM,12.9 ± 1.03 µM,less than that of Icaritin,,,,,,,,,Insoluble,Insoluble,Insoluble,Insoluble,
COc1ccc(-c2oc3c(CC=C(C)C)c(O)cc(O)c3c(=O)c2OC(=O)CCC(=O)OCCN(CCOCc2cn(CCOCCO[C@H]3O[C@@H](CO)[C@H](O)[C@@H](O)[C@@H]3O)nn2)c2ccccc2)cc1 [Compound 105],less than that of Icaritin,less than those of Icaritin,15.1 ± 1.32 µM,7.69 ± 0.04 µM,> 100 µM,9.57 ± 1.2 µM,less than that of Icaritin,improved effectively,23.4 ± 1.12 µg/mL,23.9 ± 0.982 µg/mL,23.6 ± 1.23 µg/mL,,,,,,,Insoluble,,
